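Step 1: Grow cells in 96-well plates. Step 2: Expose to compound for 48 hours at 5 concentrations. Step 3: Interpolate endpoints linearly; if unreached, use highest concentration. Here, GI50 denotes the concentration required for 50% inhibition of growth.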 Activity calls are given as the source filed them. Cut-off read from the data, not from the text of the source: active = GI50 up to about 1.1 µM and inactive = higher.
Legend:
Test in all cases: NCI tumour cell line growth inhibition, 48 h
A498 = test system: A498
CAKI-1 = test system: CAKI-1
HCC 2998 = test system: HCC 2998
HCT-116 = test system: HCT-116
HOP-92 = test system: HOP-92
IGROV-1 = test system: IGROV-1
K562 = test system: K562
LOX IMVI = test system: LOX IMVI
MCF7 = test system: MCF7
MDA-N = test system: MDA-N
MOLT-4 = test system: MOLT-4
NCI-H522 = test system: NCI-H522
OVCAR-8 = test system: OVCAR-8
RPMI-8226 = test system: RPMI-8226
SF-268 = test system: SF-268
SF-539 = test system: SF-539
SW-620 = test system: SW-620
TK-10 = test system: TK-10
U-251 = test system: U-251
UACC-62 = test system: UACC-62

SMILES | GI50 (A498) | GI50 (CAKI-1) | GI50 (HCC 2998) | GI50 (HCT-116) | GI50 (HOP-92) | GI50 (IGROV-1) | GI50 (K562) | GI50 (LOX IMVI) | GI50 (MCF7) | GI50 (MDA-N) | GI50 (MOLT-4) | GI50 (NCI-H522) | GI50 (OVCAR-8) | GI50 (RPMI-8226) | GI50 (SF-268) | GI50 (SF-539) | GI50 (SW-620) | GI50 (TK-10) | GI50 (U-251) | GI50 (UACC-62)
O=C(CC(O)(C(F)(F)F)C(F)(F)F)c1cc(CC(=O)C(O)(C(F)(F)F)C(F)(F)F)cc(CC(=O)C(O)(C(F)(F)F)C(F)(F)F)c1 | 1.88 µM (inactive) | 1.75 µM (inactive) | 1.54 µM (inactive) | 0.76 µM (active) | 0.984 µM (active) | 1.65 µM (inactive) | > 10 µM (inactive) | 1.14 µM (inactive) | 1.86 µM (inactive) | 2.64 µM (inactive) | 4.47 µM (inactive) | 1.14 µM (inactive) | 1.95 µM (inactive) | > 10 µM (inactive) | 2.67 µM (inactive) | 2.05 µM (inactive) | 2.06 µM (inactive) | 2.4 µM (inactive) | 1.54 µM (inactive) | 1.11 µM (active)
CC(=O)NS(=O)(=O)c1ccc(NC(=O)c2c3ccccc3nc3ccccc23)cc1 | > 100 µM (inactive) | > 100 µM (inactive) | > 100 µM (inactive) | > 100 µM (inactive) | > 100 µM (inactive) | > 100 µM (inactive) | > 100 µM (inactive) | > 100 µM (inactive) | > 100 µM (inactive) | > 100 µM (inactive) | > 100 µM (inactive) | > 100 µM (inactive) | > 100 µM (inactive) | > 100 µM (inactive) | > 100 µM (inactive) | > 100 µM (inactive) | > 100 µM (inactive) | > 100 µM (inactive) | > 100 µM (inactive) | > 100 µM (inactive)
COC(=O)/C=C1/OC(c2ccc(Br)cc2)=C(Br)C1=O | 16.6 µM (inactive) | 2.33 µM (inactive) | 7.66 µM (inactive) | 3 µM (inactive) | 7.48 µM (inactive) | 6.34 µM (inactive) | 2.47 µM (inactive) | 3.84 µM (inactive) | 10.5 µM (inactive) | 5.26 µM (inactive) | 2.42 µM (inactive) | 3.94 µM (inactive) | 3.29 µM (inactive) | 2.26 µM (inactive) | 6.93 µM (inactive) | 5.94 µM (inactive) | 2.6 µM (inactive) | 6.59 µM (inactive) | 2.57 µM (inactive) | 7.05 µM (inactive)
COc1ccccc1C1C2=C(COC2=O)OC(C)(C)Oc2cc3c(cc21)OCO3 (stereo not given) | 3.06 µM (inactive) | 3.33 µM (inactive) | 7.29 µM (inactive) | 3.75 µM (inactive) | 8.65 µM (inactive) | 5.35 µM (inactive) | 1.34 µM (inactive) | 5.16 µM (inactive) | 3.15 µM (inactive) | 0.65 µM (active) | 3.82 µM (inactive) | 1.99 µM (inactive) | 5.12 µM (inactive) | 4.03 µM (inactive) | 7.4 µM (inactive) | 2.74 µM (inactive) | 3.67 µM (inactive) | 1.69 µM (inactive) | 3.85 µM (inactive) | 3.37 µM (inactive)
CCOC(=O)C1=C(C)N(C)C23OC4(C(=O)OC)CC2c2ccccc2C1N3C4=O (stereo not given) | > 100 µM (inactive) | > 100 µM (inactive) | 12.4 µM (inactive) | 49.8 µM (inactive) | > 100 µM (inactive) | > 100 µM (inactive) | 83 µM (inactive) | > 100 µM (inactive) | 28.1 µM (inactive) | 14.2 µM (inactive) | 74.8 µM (inactive) | 37.4 µM (inactive) | > 100 µM (inactive) | 44.8 µM (inactive) | > 100 µM (inactive) | 22.3 µM (inactive) | 41.9 µM (inactive) | > 100 µM (inactive) | > 100 µM (inactive) | > 100 µM (inactive)
C=C1C(=O)OC2/C=C(/C)C(OC(C)=O)C/C=C(\C)C(OC(=O)C3(C)OC3C)C(O)C12 (stereo not given) | > 100 µM (inactive) | 65.8 µM (inactive) | > 100 µM (inactive) | 39.7 µM (inactive) | > 100 µM (inactive) | > 100 µM (inactive) | 40.8 µM (inactive) | 30.8 µM (inactive) | 51.1 µM (inactive) | > 100 µM (inactive) | 36.9 µM (inactive) | 14.9 µM (inactive) | > 100 µM (inactive) | 43.9 µM (inactive) | > 100 µM (inactive) | > 100 µM (inactive) | 42.4 µM (inactive) | > 100 µM (inactive) | > 100 µM (inactive) | > 100 µM (inactive)
Cc1cc(S(=O)(=O)Nc2nc(Nc3ccccc3)n[nH]2)c(SCC(=O)O)cc1Cl | > 100 µM (inactive) | > 100 µM (inactive) | > 100 µM (inactive) | > 100 µM (inactive) | > 100 µM (inactive) | > 100 µM (inactive) | > 100 µM (inactive) | > 100 µM (inactive) | > 100 µM (inactive) | > 100 µM (inactive) | > 100 µM (inactive) | > 100 µM (inactive) | > 100 µM (inactive) | > 100 µM (inactive) | > 100 µM (inactive) | > 100 µM (inactive) | > 100 µM (inactive) | > 100 µM (inactive) | > 100 µM (inactive) | > 100 µM (inactive)
CCOC(=O)c1c(Sc2ccc([N+](=O)[O-])cc2[N+](=O)[O-])nc2c3ccccc3ccn12 | 62.8 µM (inactive) | 15.6 µM (inactive) | > 28.6 µM (inactive) | > 91 µM (inactive) | 13.9 µM (inactive) | > 31.6 µM (inactive) | > 100 µM (inactive) | > 100 µM (inactive) | > 100 µM (inactive) | > 100 µM (inactive) | > 100 µM (inactive) | 41.7 µM (inactive) | 33.8 µM (inactive) | 36.3 µM (inactive) | 28.6 µM (inactive) | 15 µM (inactive) | > 100 µM (inactive) | > 55.7 µM (inactive) | 31.8 µM (inactive) | > 39.8 µM (inactive)
Nc1nc(I)nc2c1ncn2C1OC(COS(N)(=O)=O)C(O)C1O (stereo not given) | < 0.01 µM (active) | 0.0336 µM (active) | < 0.0127 µM (active) | < 0.01 µM (active) | < 0.0142 µM (active) | 0.0128 µM (active) | < 0.01 µM (active) | < 0.0116 µM (active) | < 0.01 µM (active) | < 0.01 µM (active) | < 0.01 µM (active) | < 0.01 µM (active) | < 0.01 µM (active) | 0.0179 µM (active) | < 0.01 µM (active) | < 0.01 µM (active) | 0.0235 µM (active) | 0.0102 µM (active) | < 0.01 µM (active) | 0.0226 µM (active)
COc1ccc2c(c1)-c1nc(=O)n(CCCN(C)C)c3ccc([N+](=O)[O-])c(c13)N2 | 3.39 µM (inactive) | 0.434 µM (active) | 1.06 µM (active) | 0.293 µM (active) | 1.57 µM (inactive) | 0.413 µM (active) | 0.0811 µM (active) | 0.838 µM (active) | 0.448 µM (active) | 3.22 µM (inactive) | 0.215 µM (active) | 0.368 µM (active) | 0.724 µM (active) | 0.231 µM (active) | 0.789 µM (active) | 0.421 µM (active) | 0.282 µM (active) | 1.09 µM (active) | 1.43 µM (inactive) | 8.87 µM (inactive)
CCN(CC)C(=S)Oc1cc2oc(=O)cc(C)c2cc1Cl | > 100 µM (inactive) | > 100 µM (inactive) | 52.7 µM (inactive) | > 100 µM (inactive) | 56 µM (inactive) | > 100 µM (inactive) | > 100 µM (inactive) | 68.7 µM (inactive) | 23.9 µM (inactive) | > 100 µM (inactive) | > 100 µM (inactive) | 80.4 µM (inactive) | > 100 µM (inactive) | > 100 µM (inactive) | 36.1 µM (inactive) | > 100 µM (inactive) | > 100 µM (inactive) | > 100 µM (inactive) | 42.2 µM (inactive) | 26.9 µM (inactive)
Cc1cc(S(=O)(=O)/N=C(\NN)NNc2cccc(C(F)(F)F)n2)c(S)cc1Cl | 22.1 µM (inactive) | 20.8 µM (inactive) | 16.5 µM (inactive) | 21.3 µM (inactive) | 4.21 µM (inactive) | > 10 µM (inactive) | 22.7 µM (inactive) | 18.9 µM (inactive) | > 10 µM (inactive) | 14.8 µM (inactive) | 19.2 µM (inactive) | 24.4 µM (inactive) | 24.8 µM (inactive) | 32.1 µM (inactive) | 21.4 µM (inactive) | 21.5 µM (inactive) | 18.5 µM (inactive) | 26.2 µM (inactive) | 16.8 µM (inactive) | 16.7 µM (inactive)
COC(=O)c1cc(OC)c(OC)c(OC)c1-c1cc2c(cc1C=O)OCO2 | > 10 µM (inactive) | > 10 µM (inactive) | > 10 µM (inactive) | > 10 µM (inactive) | > 10 µM (inactive) | > 10 µM (inactive) | > 10 µM (inactive) | > 10 µM (inactive) | > 10 µM (inactive) | > 10 µM (inactive) | > 10 µM (inactive) | > 10 µM (inactive) | > 10 µM (inactive) | > 10 µM (inactive) | > 10 µM (inactive) | > 10 µM (inactive) | > 10 µM (inactive) | > 10 µM (inactive) | > 10 µM (inactive) | > 10 µM (inactive)
CC1=CC(=O)[C@@H](O)[C@]2(C)[C@H]3[C@@]4(O)OC[C@]35[C@H]([C@@H](C)[C@H]4O)[C@@H](OC(=O)C(C)(C)CO)C(=O)O[C@@H]5C[C@@H]12 | 1.42 µM (inactive) | 1.08 µM (active) | 0.0476 µM (active) | < 0.0199 µM (active) | 0.0887 µM (active) | < 0.0165 µM (active) | 0.0123 µM (active) | < 0.012 µM (active) | < 0.0189 µM (active) | 0.0769 µM (active) | 0.0178 µM (active) | < 0.0151 µM (active) | 0.19 µM (active) | 0.0158 µM (active) | < 0.0379 µM (active) | < 0.0153 µM (active) | 0.229 µM (active) | 0.575 µM (active) | 0.0281 µM (active) | 0.0838 µM (active)

— ChEMBL document CHEMBL1201862, “PubChem BioAssay data set” (2004)
